Test results from BindingDB's records for PubMed 37235998 (Nanjing University of Chinese Medicine).

How the values were obtained:
[1] = molecular target: Isocitrate dehydrogenase [NADP] cytoplasmic (Homo sapiens, UniProt O75874); experiment: Inhibition of N-terminal His-tagged human recombinant IDH1 R132H mutant (1 to 414) expressed in Sf9 incubated for 60 mins by size-exclusion chromatography analysis
[2] = molecular target: T1, Isocitrate dehydrogenase [NADP], mitochondrial (Homo sapiens, UniProt P48735); experiment: Inhibition of N-terminal His-tagged human recombinant IDH2 R140Q mutant (41 to 452) expressed in baculovirus system incubated for 60 mins by size-exclusion chromatography analysis
T1 sequence (P48735 whole entry): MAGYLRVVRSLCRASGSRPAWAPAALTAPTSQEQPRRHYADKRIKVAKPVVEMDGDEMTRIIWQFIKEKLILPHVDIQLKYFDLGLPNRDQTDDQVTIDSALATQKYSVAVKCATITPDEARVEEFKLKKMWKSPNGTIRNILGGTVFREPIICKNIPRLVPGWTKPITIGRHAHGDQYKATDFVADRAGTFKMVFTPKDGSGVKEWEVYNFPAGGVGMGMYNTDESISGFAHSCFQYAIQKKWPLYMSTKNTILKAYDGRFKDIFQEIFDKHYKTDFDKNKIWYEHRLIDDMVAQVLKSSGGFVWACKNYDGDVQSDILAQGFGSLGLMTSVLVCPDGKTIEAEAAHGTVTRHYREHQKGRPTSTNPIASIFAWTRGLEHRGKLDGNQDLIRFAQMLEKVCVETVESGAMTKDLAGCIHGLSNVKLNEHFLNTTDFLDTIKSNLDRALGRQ

Isocitrate dehydrogenase [NADP] cytoplasmic, sequence (O75874 2-414 R132H limits assumed): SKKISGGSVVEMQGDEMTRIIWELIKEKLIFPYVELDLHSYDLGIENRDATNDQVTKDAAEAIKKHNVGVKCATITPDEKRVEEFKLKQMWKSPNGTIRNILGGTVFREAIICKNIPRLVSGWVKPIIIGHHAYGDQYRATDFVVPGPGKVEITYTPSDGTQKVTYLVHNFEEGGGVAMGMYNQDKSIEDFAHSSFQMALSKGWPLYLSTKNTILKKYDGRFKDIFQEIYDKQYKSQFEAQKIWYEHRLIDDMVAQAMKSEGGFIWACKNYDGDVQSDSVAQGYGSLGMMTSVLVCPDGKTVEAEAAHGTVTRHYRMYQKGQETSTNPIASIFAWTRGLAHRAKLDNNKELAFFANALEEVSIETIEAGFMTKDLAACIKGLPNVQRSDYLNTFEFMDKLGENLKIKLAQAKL

SMILES	IC50 [1] [nM]	IC50 [2] [nM]
FC1(F)CCC(Nc2nc(NC3Cc4ccccc4C3)nc(-c3cccc(C(F)(F)F)n3)n2)C1 (stereo not drawn) [US10028961, Compound 152]	< 50	< 50
C[C@@H](Nc1nc(Nc2ccnc(C3(C#N)CC3)c2)nc(-c2cccc(C(F)(F)F)n2)n1)C(F)(F)F [US10028961, Compound 352]		< 50
